Measurements: article PMC9863266, “Preclinical Studies and Drug Combination of Low-Cost Molecules for Chagas Disease” (Pharmaceuticals, 2022)
“And” between values parts separate entries of the source, which are not always exact repeats. Equal entries are not always repeated.

Assays:
[1] = system: Salmonella typhimurium strains TA98, T100, T102, TA1535, and TA1537; assay: Ames test (mutagenicity); type: cell-based; details: for Ames test TA98 revertant colonies / Ames test TA100 revertant colonies / Ames test TA102 revertant colonies / Ames test TA1535 revertant colonies / Ames test TA1537 revertant colonies: absence of metabolic activation
Method: The mutagenic capacity of the compounds was determined from a 2 × 10^9 CFU/mL culture in Oxoid No. 2 medium in the exponential phase of Salmonella typhimurium strains TA98, T100, T102, TA1535, and TA1537 (hisD3052, histidine-dependent). Five serial dilutions to the third in DMSO were evaluated, starting from the maximum non-toxic dose estimated from the results of the toxicity test carried out initially. Positive controls were performed with 4-nitro-o-phenylenediamine (20 µg/plate) in the case of mutagenicity without activation. DMSO (50 µL/plate) and phenotype control (resistance to ampicillin, tetracycline, crystal violet, and sensitive UV light) were used as negative control. Compounds were incubated for 1 h at 37 °C in 2 mL of an agar solution containing 200 µL of histidine solution [(0.5 mM)/biotin (0.5 mM)]. It was then grown on glucose minimal agar for 48 h at 37 °C. When the effect of the metabolization on the compounds was studied, the S9 fraction (Gibco™, Thermo Fisher Scientific, Grand Island, NY, US) […] and expressed as the mean of duplicates ± standard deviation. The product was considered mutagenic when the number of revertant colonies doubled that of the negative control in at least two consecutive doses. The preparation of the bacterial suspension, the dissolution of the S9 fraction, the product, and the first part of the test (until the tubes with all the solutions were transferred to the stove for incubation) was carried out under sterile conditions, in a laboratory laminar flow and with sterile material (autoclave at 121 °C for 20 min or maintaining the manufacturer’s sterility). The addition of the histidine/biotin solution and the seeding of the plates were carried out under an upward air current generated by a burner.

[2] = system: zebrafish embryos
Method: 1-Phenyl-2-thiourea (0.003%) was added to system water to inhibit melanogenesis in embryos destined for microscopic imaging. The eggs were collected, and the unfertilized ones were discarded. […] At this stage, the membrane that protects the embryo (chorion) was manually removed. This was completed on a 1 % agarose plate and medium for embryos. Two 96-well plates with a curved bottom were prepared. […] One embryo was placed per […], and it was verified that it had not suffered any injury when it was transferred. After preparing the plates, the embryos were evaluated. For this, they were placed in a humid chamber to avoid the evaporation of the compounds and were incubated at 28 °C. At 24 h, the first observation was made and half of the medium in each well was replaced to ensure that the concentrations remained constant during the 96 h of exposure. To do this, 100 µL of medium was removed from each well and replaced with 100 µL of fresh medium. […] In addition, any other type of abnormality that may indicate teratogenicity was recorded. The same was performed every 24 h until 96 h of exposure where the test was considered finished. The embryos were sacrificed in 70% ethanol. […] The curve obtained was fitted to a sigmoid using the OriginLab 8.5 program.

[3] = system: trypomastigote form of T. cruzi (strain Y); assay: Trypanosomicidal activity in trypomastigotes; type: cell-based; details: Trypanosoma cruzi, 24 h, 4 °C, infected mouse blood
Method: The experiment was performed on infected, three-month-old, Balb/c mice. Seven days post-infection, when in a parasitemia peak (>1.0 × 10^6 parasites /mL), the blood of the living (anesthetized) mouse was extracted from the aorta or eye (1 mL per mouse), and citrate was used as an anticoagulant, then seeded in a 96-well plate with a final volume of 100 μL (90 μL of blood + 10 μL from a stock solution of the compound containing 10% DMSO). It was left at 4 °C, 24 h, then 5 μL of each sample was used to count trypomastigotes using a 40x optical microscope (MO) (50-field method). The plate fill was performed by homogenizing the well before filling each well (very slowly), and it was performed in triplicate or quadruplicate to obtain the IC50 values of each compound.

[4] = target: triosephosphate isomerase recombinant enzyme of T. cruzi (TcTIM); details: cited from earlier work
[5] = system: CL Brener clone of T. cruzi; parameters: method as in PMID 26492824; details: 192 µmoles/kg/day; cited from earlier work
[6] = system: T. brucei; parameters: method as in earlier work; details: read-out: In vitro anti-T. brucei activity (IC50); cited from earlier work
[7] = system: Leishmania spp (cutaneous) promastigotes; parameters: method as in earlier work; details: read-out: In vitro anti-Leishmania spp (cutaneous) activity (IC50); cited from earlier work

## O=C(/C=C/C=C/c1ccco1)/C=C/C=C/c1ccco1 [Compound 793]
[1]
  Ames test (mutagenicity): NO
[1]; 6 μg/plate
  Ames test TA98 revertant colonies: 5±2
  Ames test TA100 revertant colonies: 89±3
  Ames test TA102 revertant colonies: 171±1
  Ames test TA1535 revertant colonies: 8±1
  Ames test TA1537 revertant colonies: 16 ± 1
[1]; 18 μg/plate
  Ames test TA98 revertant colonies: 9±3
  Ames test TA100 revertant colonies: 76±5
  Ames test TA102 revertant colonies: 176±1
  Ames test TA1535 revertant colonies: 12±1
  Ames test TA1537 revertant colonies: 18±1
[1]; 55 μg/plate
  Ames test TA98 revertant colonies: 3±1
  Ames test TA100 revertant colonies: 74±6
  Ames test TA102 revertant colonies: 194±3
  Ames test TA1535 revertant colonies: 14± 3
  Ames test TA1537 revertant colonies: 24± 4
[1]; 166 μg/plate
  Ames test TA98 revertant colonies: 3 ± 1
  Ames test TA100 revertant colonies: 58±3
  Ames test TA102 revertant colonies: 203±2
  Ames test TA1535 revertant colonies: 18±1
  Ames test TA1537 revertant colonies: 28± 3
[1]; 500 μg/plate
  Ames test TA98 revertant colonies: 5±1
  Ames test TA100 revertant colonies: 69±1
  Ames test TA102 revertant colonies: 222±6
  Ames test TA1535 revertant colonies: 20±1
  Ames test TA1537 revertant colonies: 30 ± 3
[2]; 96 h exposure
  Teratogenicity in zebrafish (LD50 ± SD): 22 µM and 22 ± 5 µM
[2]; zebrafish, in vivo
  Selectivity: zebrafish LD50 versus IC50 in the parasite: four
[3]
  IC50: 25 ± 5 µM
[4]
  IC50: 3000 nM
[5]
  Days Post-Infection of the First Parasitemia Peak: 22 days
  Reduction in the Parasitemia Peak (%): 50%
  Survival (%): 83%
[6]
  IC50: 17 µM
[7]
  IC50: 36 µM
